Laboratory results as given in ChEMBL document CHEMBL4340556, “Novel benzothiazole hydrazine carboxamide hybrid scaffolds as potential in vitro GABA AT enzyme inhibitors: Synthesis, molecular docking and antiepileptic evaluation” (Bioorg Med Chem Lett, 2019).
Calls of active or inactive are those of the source. No cut-off for these calls is given here.

Assays:
Mus musculus [1] = assay: Anticonvulsant activity in ip dosed albino mouse model of maximal electroshock-induced seizures assessed as prevention of tonic hind limb extension pretreated for 0.5 hrs followed by 50 mA current-induction for 0.25 secs; format: functional
Mus musculus [2] = assay: Anticonvulsant activity in ip dosed albino mouse model of subcutaneous pentylenetetrazole-induced seizure assessed as failure to observe even a single episode of clonic spasms for at least 5 secs pretreated for 4 hrs followed by pentylenetetrazole induction; format: functional
[3] = Neurotoxicity in ip dosed albino mouse assessed as motor impairment measured at 0.5 hrs by rotarod test; format: toxicity, organism-based; conditions: in vivo
Mus musculus [4] = assay: Anticonvulsant activity in ip dosed albino mouse model of maximal electroshock-induced seizures assessed as prevention of tonic hind limb extension pretreated for 4 hrs followed by 50 mA current-induction for 0.25 secs; format: functional
[5] = Neurotoxicity in ip dosed albino mouse assessed as motor impairment measured at 4 hrs by rotarod test; format: toxicity, organism-based; conditions: in vivo
Mus musculus [6] = assay: Anticonvulsant activity in ip dosed albino mouse model of subcutaneous pentylenetetrazole-induced seizure assessed as failure to observe even a single episode of clonic spasms for at least 5 secs pretreated for 0.5 hrs followed by pentylenetetrazole induction; format: functional
[7] = Hepatotoxicity in albino mouse assessed as increase in serum serum alkaline phosphatase level at 30 mg/kg, po administered daily for one month measured post-last dose; format: toxicity, organism-based; conditions: in vivo
[8] = Hepatotoxicity in albino mouse assessed as increase in serum SGPT level at 30 mg/kg, po administered daily for one month measured post-last dose; format: toxicity, organism-based; conditions: in vivo
[9] = target: 4-aminobutyrate aminotransferase, mitochondrial (Mus musculus, UniProt P61922); assay: Inhibition of GABA aminotransferase in mouse brain homogenates using GABA and alpha-ketoglutarate as substrates preincubated for 30 mins followed by beta-NADP addition and measured for 20 mins by spectrophotometric method; format: tissue-based
[10] = Hepatotoxicity in albino mouse assessed as decrease in serum SGOT level at 30 mg/kg, po administered daily for one month measured post-last dose; format: toxicity, organism-based; conditions: in vivo
[11] = Hepatotoxicity in albino mouse assessed as decrease in serum SGPT level at 30 mg/kg, po administered daily for one month measured post-last dose; format: toxicity, organism-based; conditions: in vivo
Mus musculus [12] = assay: Anticonvulsant activity in po dosed albino mouse brain assessed as increase in brain GABA level administered for 7 days by TLC analysis; format: functional
[13] = Hepatotoxicity in albino mouse assessed as appearance of normal hepatocyte with clearing of cytoplasm at 30 mg/kg, po administered daily for one month measured post-last dose by histopathological analysis; format: toxicity, organism-based; conditions: in vivo
[14] = Hepatotoxicity in albino mouse assessed as decrease in serum alkaline phosphatase level at 30 mg/kg, po administered daily for one month measured post-last dose; format: toxicity, organism-based; conditions: in vivo

4-aminobutyrate aminotransferase, mitochondrial, sequence (P61922 whole entry): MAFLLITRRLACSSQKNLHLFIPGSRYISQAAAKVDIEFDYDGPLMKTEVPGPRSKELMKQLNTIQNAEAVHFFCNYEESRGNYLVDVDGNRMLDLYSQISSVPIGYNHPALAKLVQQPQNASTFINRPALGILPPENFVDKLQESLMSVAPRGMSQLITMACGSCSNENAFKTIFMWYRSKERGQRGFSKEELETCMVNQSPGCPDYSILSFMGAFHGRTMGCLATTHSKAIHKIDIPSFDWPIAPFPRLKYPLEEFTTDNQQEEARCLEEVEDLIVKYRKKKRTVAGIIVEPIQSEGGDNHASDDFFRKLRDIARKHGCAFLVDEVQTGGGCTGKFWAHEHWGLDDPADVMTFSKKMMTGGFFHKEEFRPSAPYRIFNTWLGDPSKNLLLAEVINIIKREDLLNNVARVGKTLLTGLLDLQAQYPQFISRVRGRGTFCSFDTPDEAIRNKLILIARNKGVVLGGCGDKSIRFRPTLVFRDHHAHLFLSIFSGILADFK

SMILES	MED=>50 (Mus musculus [1])	MED=>50 (Mus musculus [2])	MED=>50 [3]	MED=>50 (Mus musculus [4])	MED=>50 [5]	MED=>50 (Mus musculus [6])	Activity [7]	Activity [8]	IC50 [9] [µM]	Activity [10]	Activity [11]	fold change (FC) (Mus musculus [12])	Activity [13]	Activity [14]
O=C(Nc1nc2ccc(Cl)cc2s1)NN1C(=O)CSC1c1ccccc1 (stereo not drawn)	300 mg/kg	300 mg/kg	Non-Toxic	300 mg/kg	Non-Toxic	300 mg/kg								
COc1ccc(C2C(Cl)C(=O)N2NC(=O)Nc2nc3ccc(Cl)cc3s2)cc1 (stereo not drawn)	300 mg/kg	inactive	Non-Toxic	300 mg/kg	Non-Toxic	inactive								
CC(=O)Oc1ccccc1C1C(Cl)C(=O)N1NC(=O)Nc1nc2ccc(Cl)cc2s1 (stereo not drawn)	300 mg/kg	inactive	Non-Toxic	300 mg/kg	Non-Toxic	inactive								
CC(=O)Oc1ccccc1C1SCC(=O)N1NC(=O)Nc1nc2ccc(Cl)cc2s1 (stereo not drawn)	300 mg/kg	inactive	Non-Toxic	300 mg/kg	Non-Toxic	inactive								
NC(=O)N1c2ccccc2C=Cc2ccccc21 [CARBAMAZEPINE]	30 mg/kg	100 mg/kg	100 mg/kg	100 mg/kg	300 mg/kg	100 mg/kg								
O=C(Nc1nc2ccc(Cl)cc2s1)NN1C(=O)CSC1c1ccc([N+](=O)[O-])cc1 (stereo not drawn)	30 mg/kg	100 mg/kg	Non-Toxic	100 mg/kg	Non-Toxic	100 mg/kg	Toxic	Toxic	58.1	Toxic				
O=C(Nc1nc2ccc(Cl)cc2s1)NN1C(=O)CSC1c1ccccc1Cl (stereo not drawn)	100 mg/kg	300 mg/kg	Non-Toxic	100 mg/kg	Non-Toxic	300 mg/kg								
O=C(Nc1nc2ccc(Cl)cc2s1)NN1C(=O)C(Cl)C1c1ccc([N+](=O)[O-])cc1 (stereo not drawn)	100 mg/kg	300 mg/kg	Non-Toxic	100 mg/kg	Non-Toxic	300 mg/kg								
C=CC(N)CCC(=O)O (stereo not drawn) [VIGABATRIN]									39.7					
Cc1ccccc1C1C(Cl)C(=O)N1NC(=O)Nc1nc2ccc(Cl)cc2s1 (stereo not drawn)	300 mg/kg	inactive	300 mg/kg	300 mg/kg	300 mg/kg	inactive								
CCC1(C)CC(=O)NC1=O (stereo not drawn) [ETHOSUXIMIDE]	inactive	inactive	Non-Toxic	inactive	Non-Toxic	300 mg/kg								
O=C(Nc1nc2ccc(Cl)cc2s1)NN1C(=O)C(Cl)C1c1ccccc1 (stereo not drawn)	300 mg/kg	inactive	Non-Toxic	300 mg/kg	Non-Toxic	inactive								
COc1ccc(C2SCC(=O)N2NC(=O)Nc2nc3ccc(Cl)cc3s2)cc1 (stereo not drawn)	300 mg/kg	inactive	Non-Toxic	inactive	Non-Toxic	inactive								
Cc1ccccc1C1SCC(=O)N1NC(=O)Nc1nc2ccc(Cl)cc2s1 (stereo not drawn)	300 mg/kg	inactive	300 mg/kg	300 mg/kg	300 mg/kg	inactive								
O=C(Nc1nc2ccc(Cl)cc2s1)NN1C(=O)C(Cl)C1c1ccccc1Cl (stereo not drawn)	300 mg/kg	inactive	Non-Toxic	300 mg/kg	Non-Toxic	inactive								
O=C1NC(=O)C(c2ccccc2)(c2ccccc2)N1 [PHENYTOIN]	30 mg/kg	inactive	100 mg/kg	30 mg/kg	100 mg/kg	inactive								
O=C(Nc1nc2ccc(Cl)cc2s1)NN1C(=O)CSC1c1ccc(Cl)cc1Cl (stereo not drawn)	30 mg/kg	100 mg/kg	Non-Toxic	100 mg/kg	Non-Toxic	100 mg/kg			15.3	Toxic	Toxic	1.5	Non-Toxic	Toxic
CCCC(CCC)C(=O)O [VALPROIC ACID]	inactive	inactive	Non-Toxic	inactive	Non-Toxic	300 mg/kg								
O=C(Nc1nc2ccc(Cl)cc2s1)NN1C(=O)C(Cl)C1c1ccc(Cl)cc1Cl (stereo not drawn)	30 mg/kg	100 mg/kg	Non-Toxic	100 mg/kg	Non-Toxic	100 mg/kg	Toxic	Toxic	51.4	Toxic				
